pIC50: −log10 of the molar value.
What was measured:
[1] = molecular target: T1, MMP07 (Homo sapiens, UniProt P09237); assay: Thiopeptolide assay, MMP07; format: biochemical; conditions: Tables 2, 3, 5, 7; read-out: IC50 MMP-7
T1 construct: made in house; host or cells: Escherichia coli
T1 sequence (P09237 95-267): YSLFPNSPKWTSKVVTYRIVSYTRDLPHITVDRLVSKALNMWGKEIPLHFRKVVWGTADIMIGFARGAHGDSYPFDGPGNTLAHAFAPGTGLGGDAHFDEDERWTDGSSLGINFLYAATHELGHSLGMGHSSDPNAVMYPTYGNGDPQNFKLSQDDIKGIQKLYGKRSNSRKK
Description: (§1) MMP01, MMP07, MMP09, and MMP13 activity was assayed in a method similar to MMP02 and MMP03 (SCD and GCD). MMP01 and MMP09 can be obtained from Washington University School of Medicine, St. Louis, Mo. MMP07 can be obtained in accordance with the known procedure set forth by Ye QZ, Johnson L. L., and Baragi V., "Gene Syntheses and Expression in E. coli for PUMP, a Human Matrix Metalloproteinase" Biochem. and Biophys. […] MMP 13 can be obtained in accordance with the known procedure set forth by Freije J. M. P., et al., "Molecular Cloning and Expression of Collegenase-3, a Novel Human Matrix Metalloproteinase Produced by Breast Carcinomas" J. Bio.
(§2) Hydrolysis of the thiopeptolide substrate Ac-Pro-Leu-Gly-thioester-Leu-Leu-Gly-OEt (Bachem) is used as the primary screen to determine IC50 values for MMP inhibitors. A 100 μL reaction contains 1 mM 5,5'-dithiobis(2-nitrobenzoic acid) (DTNB), 100 μM substrate, 0.1% Brij, enzyme, and inhibitor in the appropriate reaction buffer. Activated full-length enzymes are assayed at 5 nM, Stromelysin Catalytic Domain (SCD) at 10 nM, and Gelatinase A Catalytic Domain (GaCD) at 1 nM. Inhibitors are screened from 100 μM to 1 nM. Full-length enzymes are assayed in 50 mM HEPES, 10 mM CaCl2, pH 7.0; SCD in 50 mM MES, 10 mM CaCl2, pH 6.0; and GaCD in 50 mM MOPS, 10 mM CaCl2, 10 μM ZnCl2, pH 7.0.

[2] = molecular target: T2, stromelysin-1 catalytic domain (MMP03) (Homo sapiens, UniProt P08254); assay: Thiopeptolide assay, stromelysin-1 catalytic domain (SCD, MMP03); format: biochemical; conditions: Tables 2, 3, 5, 7; read-out: IC50 MMP 3CD
T2 construct: SCD (stromelysin-1 catalytic domain); made in house; host or cells: Escherichia coli
Description: as §2

[3] = tested on: MMP-13CD; assay: Thiopeptolide assay, MMP-13CD; format: biochemical, human; conditions: Tables 2, 3, 5, 7
Description: IC50 values were determined using a thiopeptolide substrate, Ac-Pro-Leu-Gly-thioester-Leu-Leu-Gly-OEt (Ye Q.-Z., Johnson L. L., Hupe D. J., and Baragi V., "Purification and Characterization of the Human Stromelysin Catalytic Domain Expressed in Escherichia coli," Biochemistry, 1992;31:11231-11235). MMP01, MMP07, MMP09, and MMP13 activity was assayed in a method similar to MMP02 and MMP03 (SCD and GCD). MMP01 and MMP09 can be obtained from Washington University School of Medicine, St. Louis, Mo. MMP07 can be obtained in accordance with the known procedure set forth by Ye QZ, Johnson L. L., and Baragi V., "Gene Syntheses and Expression in E. coli for PUMP, a Human Matrix Metalloproteinase" Biochem. and Biophys. Res. Comm., 1992; 186:143-149. MMP 13 can be obtained in accordance with the known procedure set forth by Freije J. M. P., et al., "Molecular Cloning and Expression of Collegenase-3, a Novel Human Matrix Metalloproteinase Produced by Breast Carcinomas" J. Bio. Chem., 1994;269:16766-6773.
as §2, with “7.0. The change in absorbance at 405 riM is monitored on a ThermoMax microplate reader at room temperature continuously for 20 minutes.” for “7.0.”

[4] = molecular target: T3, MMP01 (Homo sapiens, UniProt P03956); assay: Thiopeptolide assay, MMP01; format: biochemical; conditions: Tables 2, 3, 5, 7; read-out: IC50 MMP1
T3 construct: purchased Washington University School of Medicine, St. Louis, Mo
T3 sequence (P03956 100-469): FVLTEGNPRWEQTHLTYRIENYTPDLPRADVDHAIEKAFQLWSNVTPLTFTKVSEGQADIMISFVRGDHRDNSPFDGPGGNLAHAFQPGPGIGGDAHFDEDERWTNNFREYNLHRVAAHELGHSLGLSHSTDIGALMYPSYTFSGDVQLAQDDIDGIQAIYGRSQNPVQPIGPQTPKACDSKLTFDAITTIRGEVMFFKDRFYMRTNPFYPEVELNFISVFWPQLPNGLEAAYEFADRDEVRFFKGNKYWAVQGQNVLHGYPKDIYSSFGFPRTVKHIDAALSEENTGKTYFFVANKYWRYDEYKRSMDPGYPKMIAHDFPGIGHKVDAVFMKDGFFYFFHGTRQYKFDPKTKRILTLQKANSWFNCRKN
Description: as §1, §2

[5] = molecular target: gelatinase A catalytic domain (MMP02); assay: Thiopeptolide assay, gelatinase A catalytic domain (GCD, MMP02); format: biochemical; conditions: Tables 2, 3, 5, 7; read-out: IC50 MMP-2CD
Description: as §2

T2 sequence (P08254 100-272 limits assumed): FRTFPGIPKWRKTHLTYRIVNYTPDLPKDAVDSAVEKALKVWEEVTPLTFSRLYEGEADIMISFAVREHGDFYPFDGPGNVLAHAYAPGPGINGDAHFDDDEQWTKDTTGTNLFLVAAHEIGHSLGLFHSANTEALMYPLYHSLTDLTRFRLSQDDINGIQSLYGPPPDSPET

| SMILES | pIC50 [1] | pIC50 [2] | pIC50 [3] | pIC50 [4] | pIC50 [5] |
| --- | --- | --- | --- | --- | --- |
| O=C(CCCc1ccccc1)NCCCCC(NS(=O)(=O)c1ccc2oc3ccccc3c2c1)C(=O)O (stereo not shown) [Example A26, 2-(Dibenzofuran-2-sulfonylamino)-6-(4-phenyl-butyrylamino)-hexanoic acid] | < 4.00 | 5.38 | 5.27 | < 4.00 | 5.82 |
| Cc1ccc(CCC(=O)NCCCCC(NS(=O)(=O)c2ccc3oc4ccccc4c3c2)C(=O)O)cc1 (stereo not shown) [Example A27, 2-(Dibenzofuran-2-sulfonylamino)-6-(3-p-tolyl-propionylamino)-hexanoic acid] | < 4.00 | 5.11 | 5.24 | < 4.00 | 5.96 |
| O=C(CCc1ccc(Cl)cc1)NCCCCC(NS(=O)(=O)c1ccc2oc3ccccc3c2c1)C(=O)O (stereo not shown) [Example A28, 6-[3-(4-Chloro-phenyl)-propionylamino]-2-(dibenzofuran-2-sulfonylamino)-hexanoic acid] | < 4.00 | 5.35 | 5.06 | < 4.00 | 5.74 |
| O=C(CCCc1c[nH]c2ccccc12)NCCCCC(NS(=O)(=O)c1ccc2oc3ccccc3c2c1)C(=O)O (stereo not shown) [Example A31, 2-(Dibenzofuran-2-sulfonylamino)-6-(4-1H-indol-3-yl-butyrylamino)-hexanoic acid] | < 4.00 | 5.19 | 4.89 | < 4.00 | 5.48 |
| O=C(CCCc1cccs1)NCCCCC(NS(=O)(=O)c1ccc2oc3ccccc3c2c1)C(=O)O (stereo not shown) [Example A35, 2-(Dibenzofuran-2-sulfonylamino)-6-[4-thiophen-2-yl-butyrylamino)-hexanoic acid] | < 4.00 | 5.77 | 5.36 | < 4.00 | 5.96 |
| O=C(O)C(CCCCNC(=O)C1(c2ccccc2)CC1)NS(=O)(=O)c1ccc2oc3ccccc3c2c1 (stereo not shown) [Example A38, 2-(Dibenzofuran-2-sulfonylamino)-6-(1-phenyl-cyclopropanecarbonylamino)-hexanoic acid] | < 4.00 | 5.85 | 5.38 | < 4.00 | 6.22 |
| COc1ccc(NC(=O)NCCCCC(NS(=O)(=O)c2ccc3oc4ccccc4c3c2)C(=O)O)cc1 (stereo not shown) [Example B1, 2-(Dibenzofuran-2-sulfonylamino)-6-[3-(4-methoxy-phenyl)-ureido]-hexanoic acid] | < 4.00 | 5.06 | 4.85 | < 4.00 | 5.57 |
| O=C(NCCCCC(NS(=O)(=O)c1ccc2oc3ccccc3c2c1)C(=O)O)Nc1ccc(Cl)c(Cl)c1 (stereo not shown) [Example B2, 2-(Dibenzofuran-2-sulfonylamino)-6-[3-(3,4dichloro-phenyl)-ureido]-hexanoicacid] | < 4.00 | 4.05 | < 4.00 | < 4.00 | 4.65 |
| O=C(O)C(CCCCNC(=S)Nc1cccnc1)NS(=O)(=O)c1ccc2oc3ccccc3c2c1 (stereo not shown) [Example B3, 2-(Dibenzofuran-2-sulfonylamino)-6-(3-pyridin-3-yl-thioureido)-hexanoic acid] | 4.03 | 5.21 | 4.87 | < 4.00 | 5.68 |
| O=C(O)C(CCCCNC(=S)NC(c1ccccc1)c1ccccc1)NS(=O)(=O)c1ccc2oc3ccccc3c2c1 (stereo not shown) [Example B4, 6-(3-Benzhydryl-thioureido)-2-(dibenzofiuran-2-sulfonylamino)-hexanoic acid] | < 4.00 | 5.09 | 4.69 | < 4.00 | 5.04 |
| O=C(O)C(CCCCNC(=S)NCc1ccccc1)NS(=O)(=O)c1ccc2oc3ccccc3c2c1 (stereo not shown) [Example B5, 6-(3-Benzyl-thioureido)-2-(dibenzofuran-2-sulfonylamino)-hexanoic acid] | < 4.00 | 5.64 | 5.48 | < 4.00 | 5.92 |
| O=C(O)C(CCCCNC(=S)NC12CC3CC(CC(C3)C1)C2)NS(=O)(=O)c1ccc2oc3ccccc3c2c1 (stereo not shown) [Example B6, 6-(3-Adamantan-1-yl-thioureido)-2-(dibenzofuran-2-sulfonylamino)-hexanoic acid] | < 4.00 | 5.05 | 5.36 | < 4.00 | 5.51 |
| C=CCNC(=O)NCCCCC(NS(=O)(=O)c1ccc2oc3ccccc3c2c1)C(=O)O (stereo not shown) [Example B8, 6-(3-Allyl-ureido)-2-(dibenzofuran-2-sulfonylamino)-hexanoic acid] | < 4.00 | 5.52 | 5.12 | < 4.00 | 5.96 |
| O=C(NCCCCC(NS(=O)(=O)c1ccc2oc3ccccc3c2c1)C(=O)O)NCc1ccccc1 (stereo not shown) [Example B9, 6-(3-Benzyl-ureido)-2-(dibenzofuran-2-sulfonylamino)-hexanoic acid] | 4.15 | 5.85 | 5.40 | < 4.00 | 6.10 |
| O=C(NCCCCC(NS(=O)(=O)c1ccc2oc3ccccc3c2c1)C(=O)O)Nc1ccccc1 (stereo not shown) [Example B10, 2-(Dibenzofuran-2-sulfonylamino)-6-(3-phenyl-ureido)-hexanoic acid] | < 4.00 | 5.62 | 5.10 | < 4.00 | 6.52 |
| O=C(O)C(CCCCNS(=O)(=O)c1ccc(F)cc1)NS(=O)(=O)c1ccc2oc3ccccc3c2c1 (stereo not shown) [Example D1, 2-(Dibenzofuran-2-sulfonylamino)-6-(4-fluoro-benzenesulfonylamino)-hexanoicacid] | < 4.00 | 5.54 | 5.62 | < 4.00 | 5.77 |
| COc1ccc(S(=O)(=O)NCCCCC(NS(=O)(=O)c2ccc3oc4ccccc4c3c2)C(=O)O)cc1 (stereo not shown) [Example D2, 2-(Dibenzofuran-2-sulfonylamino)-6-(4-methoxy-benzenesulfonylamino)-hexanoic acid] | < 4.00 | 5.34 | 5.15 | < 4.00 | 5.74 |

Source: US6294674A, “Dibenzofuran sulfonamide matrix metalloproteinase inhibitors” (priority 1999, dated 2001)
